The NIST ThermoML archive (doi:10.1016/j.fluid.2013.11.026)

What was measured:
[1] = refractive index (Na D-line) (dimensionless); settings: 101.33 kPa, Liquid, Standard Abbe refractometry
[2] = 101.33 kPa, Liquid, Vibrating tube method
[3] = xn = mol fraction of the nth substance listed; settings: 101 kPa, Liquid, Vibrating tube method
[4] = excess molar enthalpy (molar enthalpy of mixing); xn = mol fraction of the nth substance listed; settings: 101 kPa, Liquid, Calvet calorimetry

COC=O [methyl methanoate]
Settings | mass density, [2] [kg/m3] | refractive index, [1]
291.15 K | 977.21 | 1.3452
298.15 K | 966.54 | 1.3415

COC=O [methyl methanoate] + CCCCC
291.15 K
Settings | excess molar enthalpy [kcal/mol] | mass density [kg/m3]
[3], x1 = 0.091 | – | 640.27
[3], x1 = 0.102 | – | 641.95
[3], x1 = 0.147 | – | 649.45
[3], x1 = 0.206 | – | 660.56
[3], x1 = 0.27 | – | 674.05
[3], x1 = 0.309 | – | 683.08
[3], x1 = 0.371 | – | 698.6
[3], x1 = 0.393 | – | 704.52
[3], x1 = 0.416 | – | 710.63
[3], x1 = 0.451 | – | 721.01
[3], x1 = 0.488 | – | 732.21
[3], x1 = 0.506 | – | 737.92
[3], x1 = 0.559 | – | 755.6
[3], x1 = 0.618 | – | 776.61
[3], x1 = 0.695 | – | 807.5
[3], x1 = 0.759 | – | 835.94
[3], x1 = 0.786 | – | 849.13
[3], x1 = 0.827 | – | 870.13
[3], x1 = 0.84 | – | 876.82
[3], x1 = 0.941 | – | 936.47
[3], x1 = 1 | – | 977.21
[4], x1 = 0.1107 | 0.1511 | –
[4], x1 = 0.2113 | 0.2758 | –
[4], x1 = 0.3055 | 0.3714 | –
[4], x1 = 0.3765 | 0.418 | –
[4], x1 = 0.438 | 0.4412 | –
[4], x1 = 0.4783 | 0.4484 | –
[4], x1 = 0.5268 | 0.4539 | –
[4], x1 = 0.5716 | 0.4503 | –
[4], x1 = 0.6028 | 0.4398 | –
[4], x1 = 0.6356 | 0.4264 | –
[4], x1 = 0.6702 | 0.4089 | –
[4], x1 = 0.7191 | 0.3817 | –
[4], x1 = 0.7683 | 0.3425 | –
[4], x1 = 0.8256 | 0.2882 | –
[4], x1 = 0.8773 | 0.2266 | –
[4], x1 = 0.9215 | 0.158 | –
[4], x1 = 0.9587 | 0.0827 | –

CCCCC [pentane]
Settings | mass density, [2] [kg/m3] | refractive index, [1]
291.15 K | 627.86 | 1.3589
298.15 K | 620.89 | 1.3545

CCCCC [pentane] + CCCCOC=O
[3], x2 = 0
Settings | mass density [kg/m3]
291.15 K | 627.86
298.15 K | 620.89

CCCCC [pentane] + CCCOC=O
[3], x2 = 0
Settings | mass density [kg/m3]
291.15 K | 627.86
298.15 K | 620.89

CCCCC [pentane] + CCOC=O
[3], x2 = 0
Settings | mass density [kg/m3]
291.15 K | 627.86
298.15 K | 620.89

CCCCC [pentane] + COC=O
Settings | mass density [kg/m3]
[3], 291.15 K, x2 = 0 | 627.86

CCCOC=O [propyl methanoate]
Settings | mass density, [2] [kg/m3] | refractive index, [1]
291.15 K | 907.97 | 1.3778
298.15 K | 899.86 | 1.3752

CCCOC=O [propyl methanoate] + CCCCC
Settings | excess molar enthalpy, [4] [kcal/mol] | mass density, [3] [kg/m3]
291.15 K, x1 = 0.057 | – | 639.86
291.15 K, x1 = 0.0666 | 0.0844 | –
291.15 K, x1 = 0.117 | – | 653.61
291.15 K, x1 = 0.1411 | 0.141 | –
291.15 K, x1 = 0.166 | – | 665.38
291.15 K, x1 = 0.2072 | 0.1824 | –
291.15 K, x1 = 0.26 | – | 688.38
291.15 K, x1 = 0.2696 | 0.2106 | –
291.15 K, x1 = 0.308 | – | 700.63
291.15 K, x1 = 0.3154 | 0.2273 | –
291.15 K, x1 = 0.3689 | 0.2395 | –
291.15 K, x1 = 0.4172 | 0.2433 | –
291.15 K, x1 = 0.448 | – | 737.83
291.15 K, x1 = 0.46 | 0.2431 | –
291.15 K, x1 = 0.4953 | 0.2402 | –
291.15 K, x1 = 0.5199 | 0.238 | –
291.15 K, x1 = 0.537 | – | 763.24
291.15 K, x1 = 0.5543 | 0.2321 | –
291.15 K, x1 = 0.5955 | 0.2218 | –
291.15 K, x1 = 0.631 | 0.2122 | –
291.15 K, x1 = 0.651 | – | 796.41
291.15 K, x1 = 0.678 | 0.1974 | –
291.15 K, x1 = 0.703 | – | 812.04
291.15 K, x1 = 0.7184 | 0.1807 | –
291.15 K, x1 = 0.7665 | 0.1597 | –
291.15 K, x1 = 0.819 | 0.1322 | 848.4
291.15 K, x1 = 0.847 | – | 857.3
291.15 K, x1 = 0.879 | 0.0949 | –
291.15 K, x1 = 0.938 | – | 886.86
291.15 K, x1 = 0.9403 | 0.0528 | –
291.15 K, x1 = 1 | – | 907.97
298.15 K, x1 = 0.042 | 0.0468 | –
298.15 K, x1 = 0.0505 | – | 631.54
298.15 K, x1 = 0.0794 | – | 638.09
298.15 K, x1 = 0.1081 | 0.114 | –
298.15 K, x1 = 0.1375 | – | 651.43
298.15 K, x1 = 0.1456 | 0.158 | –
298.15 K, x1 = 0.2012 | – | 666.5
298.15 K, x1 = 0.2109 | 0.2017 | –
298.15 K, x1 = 0.2525 | – | 679.23
298.15 K, x1 = 0.2706 | 0.2294 | –
298.15 K, x1 = 0.3178 | – | 695.79
298.15 K, x1 = 0.3317 | 0.2495 | –
298.15 K, x1 = 0.3733 | – | 710.12
298.15 K, x1 = 0.3889 | 0.2596 | –
298.15 K, x1 = 0.4303 | – | 725.46
298.15 K, x1 = 0.4431 | 0.2631 | –
298.15 K, x1 = 0.4798 | – | 739.19
298.15 K, x1 = 0.4882 | – | 741.75
298.15 K, x1 = 0.4905 | 0.2627 | –
298.15 K, x1 = 0.5353 | 0.2584 | –
298.15 K, x1 = 0.5467 | – | 758.38
298.15 K, x1 = 0.5637 | 0.2548 | –
298.15 K, x1 = 0.6019 | – | 774.28
298.15 K, x1 = 0.6149 | 0.245 | –
298.15 K, x1 = 0.67 | 0.2326 | –
298.15 K, x1 = 0.6778 | – | 796.75
298.15 K, x1 = 0.7271 | 0.2125 | –
298.15 K, x1 = 0.7597 | – | 822.01
298.15 K, x1 = 0.7888 | 0.1809 | –
298.15 K, x1 = 0.8079 | – | 837.19
298.15 K, x1 = 0.8503 | – | 850.78
298.15 K, x1 = 0.8511 | 0.141 | –
298.15 K, x1 = 0.9096 | 0.0927 | –
298.15 K, x1 = 0.9251 | – | 874.84
298.15 K, x1 = 0.9655 | 0.0442 | –
298.15 K, x1 = 1 | – | 899.86
